Results taken from ChEMBL document CHEMBL1151539, “The synthesis and evaluation of diacylglycerol analogues as potential second-messenger antagonists” (Bioorg Med Chem Lett, 1992).

Legend:
MR4 [1] = experiment: Concentration required for inhibiting the growth of MR4 cells; 0.05-0.1; format: functional, Mus musculus
Protein kinase C (PKC) = experiment: Inhibition of protein kinase C; format: protein assay, Rattus norvegicus
MR4 [2] = experiment: Concentration required for inhibiting the growth of MR4 cells; 0.1-1.0; format: functional, Mus musculus
HT-29 [3] = experiment: Concentration required for inhibiting the growth of HT-29 cells; 0.1-1.0; format: functional, Homo sapiens
HT-29 [4] = experiment: Concentration required for inhibiting the growth of HT-29 cells; 0.05-0.1; format: functional, Homo sapiens

Row | SMILES | I80 (MR4 [1]) [mM] | I50 (Protein kinase C (PKC)) [mM] | I80 (MR4 [2]) [mM] | I80 (HT-29 [3]) [mM] | I80 (HT-29 [4]) [mM]
1 | CCCCCCCC(=O)OCC(COC(C)=O)OC(=O)CCCCCCC (configuration not stated) | 0.05 | 0.01 | – | – | –
2 | CCCCCCCC(=O)OCC(COC)OC(=O)CCCCCCC (configuration not stated) | – | 0.1 | 0.1 | 0.1 | –
3 | CCCCCCCC(=O)OCC(CO)OC(=O)CCCCCCC (configuration not stated) [MONOCTANOIN COMPONENT C] | 0.05 | – | – | – | 0.05
